SMILES strings stand for the structures.

For this assay, the target named is T1, calstabin2 (FKBP12.6) binding to PKA-phosphorylated cardiac sarcoplasmic reticulum (CSR) (Homo sapiens, UniProt Q92736).
T1 construct: from tissue
T1 sequence (Q92736 whole entry): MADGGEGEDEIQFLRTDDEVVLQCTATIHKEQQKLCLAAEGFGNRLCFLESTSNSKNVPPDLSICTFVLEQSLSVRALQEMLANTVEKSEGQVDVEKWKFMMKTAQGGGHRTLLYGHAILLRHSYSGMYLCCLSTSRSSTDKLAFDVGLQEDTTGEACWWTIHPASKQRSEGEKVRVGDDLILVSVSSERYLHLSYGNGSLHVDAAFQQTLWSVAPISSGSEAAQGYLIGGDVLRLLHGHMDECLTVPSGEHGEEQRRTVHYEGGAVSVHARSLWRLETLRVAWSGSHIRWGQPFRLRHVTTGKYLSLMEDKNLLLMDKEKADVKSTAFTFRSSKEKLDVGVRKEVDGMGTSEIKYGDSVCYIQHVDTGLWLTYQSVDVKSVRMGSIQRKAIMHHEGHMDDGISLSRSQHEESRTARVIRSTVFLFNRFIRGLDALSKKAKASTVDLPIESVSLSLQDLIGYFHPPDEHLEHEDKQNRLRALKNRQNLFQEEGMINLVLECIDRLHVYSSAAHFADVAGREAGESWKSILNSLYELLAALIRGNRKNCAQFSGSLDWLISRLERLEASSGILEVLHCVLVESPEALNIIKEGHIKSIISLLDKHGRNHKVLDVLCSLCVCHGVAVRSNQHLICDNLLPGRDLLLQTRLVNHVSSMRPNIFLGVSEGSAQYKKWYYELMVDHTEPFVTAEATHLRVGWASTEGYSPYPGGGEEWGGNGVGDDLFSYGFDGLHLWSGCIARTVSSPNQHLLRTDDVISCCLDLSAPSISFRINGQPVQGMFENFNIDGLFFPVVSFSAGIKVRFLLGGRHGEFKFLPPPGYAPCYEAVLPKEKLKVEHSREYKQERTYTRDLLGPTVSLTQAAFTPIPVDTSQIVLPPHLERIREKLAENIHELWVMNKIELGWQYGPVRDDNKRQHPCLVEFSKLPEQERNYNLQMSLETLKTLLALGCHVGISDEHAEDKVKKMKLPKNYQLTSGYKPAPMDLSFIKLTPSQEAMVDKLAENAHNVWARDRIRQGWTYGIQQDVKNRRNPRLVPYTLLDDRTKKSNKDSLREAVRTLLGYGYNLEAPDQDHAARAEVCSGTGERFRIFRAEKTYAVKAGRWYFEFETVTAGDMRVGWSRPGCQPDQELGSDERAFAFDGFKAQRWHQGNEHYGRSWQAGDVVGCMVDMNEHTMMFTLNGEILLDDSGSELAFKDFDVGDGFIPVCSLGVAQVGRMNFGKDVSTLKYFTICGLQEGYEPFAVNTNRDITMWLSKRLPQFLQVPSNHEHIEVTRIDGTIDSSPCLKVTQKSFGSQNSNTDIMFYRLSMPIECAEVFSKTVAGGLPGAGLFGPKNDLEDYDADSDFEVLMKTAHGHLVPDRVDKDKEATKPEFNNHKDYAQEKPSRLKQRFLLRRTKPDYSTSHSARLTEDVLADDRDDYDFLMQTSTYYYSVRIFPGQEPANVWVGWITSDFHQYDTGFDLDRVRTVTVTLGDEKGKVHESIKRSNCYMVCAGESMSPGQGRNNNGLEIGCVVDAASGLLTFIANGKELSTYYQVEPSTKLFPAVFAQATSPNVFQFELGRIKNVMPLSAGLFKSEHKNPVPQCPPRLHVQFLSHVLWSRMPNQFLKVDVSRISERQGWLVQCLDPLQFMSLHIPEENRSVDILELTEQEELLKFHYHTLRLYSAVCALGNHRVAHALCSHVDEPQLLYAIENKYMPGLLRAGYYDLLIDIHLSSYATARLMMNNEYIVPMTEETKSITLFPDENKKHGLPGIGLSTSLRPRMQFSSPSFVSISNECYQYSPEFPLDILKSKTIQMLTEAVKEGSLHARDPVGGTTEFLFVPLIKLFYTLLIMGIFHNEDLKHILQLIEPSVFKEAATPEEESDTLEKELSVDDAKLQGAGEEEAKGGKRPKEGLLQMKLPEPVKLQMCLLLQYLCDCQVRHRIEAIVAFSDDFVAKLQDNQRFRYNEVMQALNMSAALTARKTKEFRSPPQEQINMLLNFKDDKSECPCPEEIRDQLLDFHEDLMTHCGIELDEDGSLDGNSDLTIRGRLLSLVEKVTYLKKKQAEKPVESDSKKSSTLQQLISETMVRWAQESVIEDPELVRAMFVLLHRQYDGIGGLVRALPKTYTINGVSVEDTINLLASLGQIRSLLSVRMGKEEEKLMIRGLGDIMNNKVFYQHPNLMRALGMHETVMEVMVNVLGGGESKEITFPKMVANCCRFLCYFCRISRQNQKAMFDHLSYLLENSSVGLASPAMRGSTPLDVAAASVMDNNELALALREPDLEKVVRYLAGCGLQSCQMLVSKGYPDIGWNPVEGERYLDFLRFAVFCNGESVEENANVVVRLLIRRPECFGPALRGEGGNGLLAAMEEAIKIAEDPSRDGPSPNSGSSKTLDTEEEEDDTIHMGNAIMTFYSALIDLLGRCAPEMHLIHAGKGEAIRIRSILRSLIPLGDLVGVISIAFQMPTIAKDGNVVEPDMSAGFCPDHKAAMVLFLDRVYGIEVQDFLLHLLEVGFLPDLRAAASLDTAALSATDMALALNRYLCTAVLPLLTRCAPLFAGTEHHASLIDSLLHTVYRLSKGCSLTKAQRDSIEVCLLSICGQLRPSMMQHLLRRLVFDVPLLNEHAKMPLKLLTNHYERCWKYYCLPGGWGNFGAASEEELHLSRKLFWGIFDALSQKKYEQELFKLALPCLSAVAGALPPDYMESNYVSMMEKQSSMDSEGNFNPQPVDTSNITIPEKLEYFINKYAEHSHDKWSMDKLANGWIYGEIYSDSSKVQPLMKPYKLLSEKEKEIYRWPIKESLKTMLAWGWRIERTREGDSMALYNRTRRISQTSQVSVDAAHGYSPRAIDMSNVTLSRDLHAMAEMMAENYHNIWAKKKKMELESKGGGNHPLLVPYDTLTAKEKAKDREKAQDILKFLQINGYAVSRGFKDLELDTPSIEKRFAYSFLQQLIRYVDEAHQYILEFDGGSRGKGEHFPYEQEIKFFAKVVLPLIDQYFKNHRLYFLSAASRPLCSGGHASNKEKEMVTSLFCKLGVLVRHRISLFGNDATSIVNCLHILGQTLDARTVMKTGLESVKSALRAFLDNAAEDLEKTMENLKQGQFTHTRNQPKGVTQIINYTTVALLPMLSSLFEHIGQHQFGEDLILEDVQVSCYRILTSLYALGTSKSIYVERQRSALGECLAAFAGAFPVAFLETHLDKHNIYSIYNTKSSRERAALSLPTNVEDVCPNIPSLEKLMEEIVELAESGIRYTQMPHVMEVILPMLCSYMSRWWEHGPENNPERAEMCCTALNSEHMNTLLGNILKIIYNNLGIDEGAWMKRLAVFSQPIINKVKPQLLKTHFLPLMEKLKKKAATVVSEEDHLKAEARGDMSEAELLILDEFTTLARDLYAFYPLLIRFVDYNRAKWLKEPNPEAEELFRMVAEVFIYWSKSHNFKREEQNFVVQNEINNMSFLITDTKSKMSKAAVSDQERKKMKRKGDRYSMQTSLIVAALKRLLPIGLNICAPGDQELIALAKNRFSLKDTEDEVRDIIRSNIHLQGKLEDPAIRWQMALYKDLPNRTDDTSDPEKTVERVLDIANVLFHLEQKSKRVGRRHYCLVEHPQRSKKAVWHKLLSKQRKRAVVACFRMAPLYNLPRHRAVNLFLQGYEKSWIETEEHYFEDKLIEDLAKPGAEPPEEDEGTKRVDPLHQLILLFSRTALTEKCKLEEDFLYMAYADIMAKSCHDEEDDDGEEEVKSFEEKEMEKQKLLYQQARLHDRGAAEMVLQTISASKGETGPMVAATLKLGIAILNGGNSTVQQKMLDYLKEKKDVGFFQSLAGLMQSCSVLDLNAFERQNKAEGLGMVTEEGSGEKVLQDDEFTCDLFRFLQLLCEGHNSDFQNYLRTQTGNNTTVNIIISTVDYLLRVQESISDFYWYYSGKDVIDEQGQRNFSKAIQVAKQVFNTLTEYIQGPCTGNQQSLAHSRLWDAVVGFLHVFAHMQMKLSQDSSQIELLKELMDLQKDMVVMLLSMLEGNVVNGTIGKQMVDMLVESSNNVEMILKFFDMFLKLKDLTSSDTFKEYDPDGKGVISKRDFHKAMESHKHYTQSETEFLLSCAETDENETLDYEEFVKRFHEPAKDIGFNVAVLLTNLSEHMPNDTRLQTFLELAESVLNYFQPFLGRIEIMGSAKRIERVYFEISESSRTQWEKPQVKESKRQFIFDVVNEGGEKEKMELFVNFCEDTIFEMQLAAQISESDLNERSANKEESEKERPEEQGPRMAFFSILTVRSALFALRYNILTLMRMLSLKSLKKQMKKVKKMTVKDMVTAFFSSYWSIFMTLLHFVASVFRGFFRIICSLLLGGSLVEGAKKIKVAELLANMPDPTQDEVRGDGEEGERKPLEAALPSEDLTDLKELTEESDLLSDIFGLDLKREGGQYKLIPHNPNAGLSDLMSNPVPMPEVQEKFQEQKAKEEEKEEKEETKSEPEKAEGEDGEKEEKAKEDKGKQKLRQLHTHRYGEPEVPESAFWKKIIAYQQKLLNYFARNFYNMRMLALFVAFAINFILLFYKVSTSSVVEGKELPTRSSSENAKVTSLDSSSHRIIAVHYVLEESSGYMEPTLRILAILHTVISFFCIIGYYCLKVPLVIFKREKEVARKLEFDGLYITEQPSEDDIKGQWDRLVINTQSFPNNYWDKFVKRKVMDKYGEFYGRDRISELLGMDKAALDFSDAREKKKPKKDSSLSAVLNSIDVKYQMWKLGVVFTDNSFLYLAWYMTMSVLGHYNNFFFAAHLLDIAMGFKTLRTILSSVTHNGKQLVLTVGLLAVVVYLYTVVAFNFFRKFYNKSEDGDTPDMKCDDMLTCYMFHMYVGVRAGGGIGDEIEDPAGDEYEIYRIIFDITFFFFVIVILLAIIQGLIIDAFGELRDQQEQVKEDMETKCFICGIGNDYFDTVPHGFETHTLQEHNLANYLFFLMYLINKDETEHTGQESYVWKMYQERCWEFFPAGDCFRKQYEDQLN
T1 sequence (P68106 whole entry partner): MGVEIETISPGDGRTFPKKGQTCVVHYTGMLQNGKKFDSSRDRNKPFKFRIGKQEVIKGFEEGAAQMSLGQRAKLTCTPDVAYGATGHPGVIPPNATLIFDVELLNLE
Briefly: Calstabin 2 (FKBP12.6) Assay. Conditions: 250 nM calstabin2, approximately 20 μg PKA-phosphorylated CSR, room temperature 30 minutes, immunoblot detection of calstabin2 binding. Here is the method: PKA-phosphorylated cardiac sarcoplasmic reticulum (CSR) (approximately 20 μg) is incubated with 250 nM calstabin2 (FKBP12.6) in 100 μl binding buffer (10 mM imidazole, 300 mM sucrose, pH 7.4) with a known concentration of the test compound. Calstabin2 is added as the last reagent in the reaction mixture. The binding is performed at room temperature for 30 minutes. After the binding reaction, the mixture is centrifuged for 10 minutes at 100,000 xg. The resulting pellet is washed 4 times in binding buffer. After each wash, the tubes are centrifuged at 100,000 xg for 10 minutes. After the final wash, the supernatant is aspirated off 20 μl of 2×SDS-PAGE loading buffer is added to each pellet, and the pellet is resuspended. The mixture is heated to 90° C. for 4 minutes, and the proteins are analysed by 15% SDS-PAGE. Calstabin2 binding was detected with an αFKBP (1:2000) primary antibody and an IR-labeled anti-rabbit IgG from LiCor Biosciences as the secondary antibody. The blot was developed with a LiCor Odyssey system.
(In western blotting, separated proteins are transferred to a membrane and probed.)
For the compound `COc1ccc2c(c1)CN(C(=O)CCN1CCC(Cc3ccccc3)CC1)[C@H](C)[C@H](C)S2`, the Binding turned out to be 1000 nM. As to `COc1ccc2c(c1)C/C(=C/CCN1CCC(Cc3ccccc3)CC1)CCS2`, the Binding is listed as 100 nM. Compound `COc1ccc2c(c1)C/C(=C\CCN1CCC(Cc3ccccc3)CC1)CCS2` came in with a Binding of 1000 nM.

`COc1cccc(OC)c1CN(C)C(=O)CCN1CCC(Cc2ccccc2)CC1` displayed a Binding of 1000 nM. `COc1ccc2c(c1)CN(C(=O)CCN1CCC(Cc3ccccc3)CC1)C(C)CS2` (stereo not drawn) displayed a Binding of 100 nM. The figure for `COc1ccc2c(c1)CN(C(=O)CCN1CCC(Cc3ccccc3)CC1)C[C@@H](C)S2` is 100 nM; for `COc1ccc2c(c1)CN(C(=O)CCN1CCC(Cc3ccccc3)CC1)C[C@@H](C)O2` it is 100 nM.

In turn, `COc1ccc2c(c1)CN(C(=O)CCN1CCC(Cc3ccccc3)CC1)C[C@H](C)O2` had a Binding of 100 nM.

`COc1ccc2c(c1)CN(C(=O)CCN1CCC(Cc3ccccc3)CC1)[C@@H](C)[C@@H](C)S2` displayed a Binding of 100 nM.

For the origin of these results see patent US20110263569A1, “RYANODINE CHANNEL BINDERS AND USES THEREOF” (President and Fellows of Harvard College, priority 2007, published 2011).
